US20190177440A1, “COMPOUND OR SALT THEREOF, ANTI-INFLAMMATORY AGENT, ANTI-CANCER AGENT AGAINST LUNG CANCER, METHOD OF PRODUCING COMPOUND OR SALTS THEREOF, METHOD OF TREATING INFLAMMATORY DISEASES AND METHOD OF TREATING LUNG CANCER” (TFK CO., LTD., priority 2016, published 2019)

How the values were obtained:
TNF-α = TNF-α production in RAW264.7 cells stimulated with LPSp (Example 7); assay type: cell-based, mouse; conditions: final 1 ng/mL to 10 μg/mL, then LPSp 100 ng/mL, FIG. 7
Experimental: The culture medium was added to mouse macrophage cells (RAW264.7, ATCC) to prepare solutions at concentrations of 4×10^5 cells/mL. The solutions were seeded in 96-well flat-bottomed plates in 100 μL portions, i.e., 4×10^4 cells/100 μL/well. After seeding, the cells were incubated at 37° C. in 5% CO2 for 2 hours until they adhered to the bottoms of the wells and extended. Next, 100 μL of the test solution was added to each well. After adding the test solution, the cells were incubated at 37° C. in a 5% CO2 for 24 hours. After the incubation, the culture supernatant of the wells was removed, 150 μl of the above-mentioned culture solution was newly added (hereinafter, this step is referred to as a “culture solution adding step”), and the wells were incubated at 37° C. in a 5% CO2 for 24 hours.
After incubation, 50 μl of culture supernatant from each well was collected, transferred to each well of new 96-well flat-bottom plates, and absorbance was measured using mouse TNF a assay kit (manufactured by Biolegend) and converted to TNF-α concentrations.
In this example, an experiment was carried out in the same manner as in Example 6 except for the following two points, and 50 μL of culture supernatant of each well was collected and TNF-α concentration was measured. That is, in this example, a total of five test solutions were used as the test solution, in which the concentration of the purified product was 20 μg/mL, 2 μg/mL, 200 ng/mL, 20 ng/mL, and 2 ng/mL. Since the five test solutions are diluted twice when added to the cells, the final concentrations of the purified products are 10 μg/mL, 1 μg/mL, 100 ng/mL, 10 ng/mL, and 1 ng/mL, respectively. In this example, in the culture medium adding step in Example 5, 150 μL of the culture medium containing LPSp at a final concentration of 100 ng/mL was added instead of 150 μL of the culture medium.

IL-6 = IL-6 production in THP-1 cells stimulated with LPSp, with or without PPARγ inhibitor GW9662 (Example 8-1); assay type: cell-based, human; conditions: final 100, 1,000 and 10,000 ng/mL, LPSp 100 ng/mL, GW9662- (PPARγ not inhibited), FIG. 8
Experimental: In the same manner as “(1) Preparation of test solution” in Example 3, a solution having a concentration of the purified product of 20,000 ng/mL was prepared, and the solution was serially diluted with a culture solution having the following composition, thereby obtaining a total of three test solutions having a concentration of 400 ng/mL, 4,000 ng/mL, and 40000 ng/mL. Since the three test solutions are diluted four-fold when added to the cells, the final concentrations of the purified products are 100 ng/mL, 1,000 ng/mL, and 10,000 ng/mL, respectively.
The culture medium was added to cells derived from human peripheral blood monocytes (THP-1, manufactured by DS Pharma Biomedical Co., Ltd.) to prepare solutions in which the concentrations of the cells were 4×10^5 cells/mL. The solutions were seeded in 24 well plates in 500 μL portions, i.e., 2.0×10^5 cells/500 μL/well. After seeding, 250 μL of the culture medium or 250 μL of the culture medium containing 40 μmol/L of GW9662 (manufactured by Wako Pure Chemical Industries, Ltd.) was added to the wells. The GW9662 is an inhibitor of PPARγ (Peroxisome proliferator-activated receptor γ) which is one type of nuclear receptor. After the addition, the mixture was incubated at 37° C. in a 5% CO2 for 1 hour. Thereafter, 250 μl of the test solution was added to each well, and the wells were incubated at 37° C. in a 5% CO2 for 22 hours. After culturing, the culture supernatant of each well was collected in a 2 mL tube. A new 0.5 mL of the culture medium was added to each well, spread over the whole well, and collected in the 2 mL tube. To each empty well was added 0.49 mL of fresh culture medium. The culture solution collected in the 2 mL tube was centrifuged at 1,000 rpm for 5 minutes, the supernatant was removed, and 1 mL of the fresh culture solution was added to suspend, and centrifuged again under the same conditions. After centrifugation, the supernatant was removed and 0.49 mL of culture medium in each well was added to the 2 mL tube, suspended and returned to each well. Then, 250 μL of the culture medium or 250 μL of the culture medium containing 40 μmol/L of the above GW9662 was added to the wells, and the wells were cultured at 37° C. in a 5% CO2 for 1 hour. After the incubation, 250 μL of the culture medium containing LPSp was added to the wells so that the final concentration of the LPSp was 100 ng/mL, and the wells were incubated at 37° C. in a 5% CO2 for 22 hours.
After culturing, the culture supernatants of the wells were collected in tubes, centrifuged, and the supernatants were collected in 1.5-mL tubes. The absorbance was measured using Human IL-6 ELISA MAX Deluxe (Biolegend Corporation), and the concentrations of Interleukin-6 (IL-6) were calculated.

SMILES	TNF-α concentration in culture supernatant (TNF-α)	IL-6 concentration in culture supernatant (IL-6)
CCCCCC/C=C/CCCCCC(=O)OC(CCCCCCCCCCC)CC(=O)NC1C(OCC2OC(OP(=O)(O)O)C(NC(=O)CC(=O)CCCCCCCCCCC)C(OC(=O)CC(O)CCCCCCC)C2O)OC(COC2(C(=O)O)CC(OC3(C(=O)O)CC(O)C(OC4OC(C(=O)O)C(OC5OC(CO)C(O)C(O)C5O)C(O)C4O)C(C(O)CO)O3)C(OC3OC(COP(=O)(O)O)C(OC4OC(CO)C(O)C(O)C4O)C(O)C3O)C(C(O)CO)O2)C(OP(=O)(O)O)C1OC(=O)CC(O)CCCCCCC (centres unmarked) [Formula (B1)]	Equivalent results were obtained	Equivalent results were obtained
CCCCCC/C=C/CCCCCC(=O)OC(CCCCCCCCCCC)CC(=O)NC1C(OCC2OC(OP(=O)(O)O)C(NC(=O)CC(=O)CCCCCCCCCCC)C(OC(=O)CC(O)CCCCCCC)C2O)OC(COC2(C(=O)O)CC(OC3(C(=O)O)CC(OC4OC(C(=O)O)C(OC5OC(CO)C(O)C(O)C5O)C(O)C4O)C(O)C(C(O)CO)O3)C(OC3OC(COP(=O)(O)O)C(OC4OC(CO)C(O)C(O)C4O)C(O)C3O)C(C(O)CO)O2)C(OP(=O)(O)O)C1OC(=O)CC(O)CCCCCCC (centres unmarked) [Formula (A1)]	Equivalent results were obtained	Equivalent results were obtained
CCCCCC/C=C/CCCCCC(=O)OC(CCCCCCCCCCC)CC(=O)NC1C(OCC2OC(OP(=O)(O)O)C(NC(=O)CC(=O)CCCCCCCCCCC)C(OC(=O)CC(O)CCCCCCC)C2O)OC(COC2(C(=O)O)CC(OC3(C(=O)O)CC(O)C(OC4OC(C(=O)O)C(OC5OC(CO)C(O)C(O)C5O)C(O)C4O)C(C(O)CO)O3)C(OC3OC(CO)C(O)C(O)C3O)C(C(O)CO)O2)C(OP(=O)(O)O)C1OC(=O)CC(O)CCCCCCC (centres unmarked) [Formula (B2)]	Equivalent results were obtained	Equivalent results were obtained
CCCCCC/C=C/CCCCCC(=O)OC(CCCCCCCCCCC)CC(=O)NC1C(OCC2OC(OP(=O)(O)O)C(NC(=O)CC(=O)CCCCCCCCCCC)C(OC(=O)CC(O)CCCCCCC)C2O)OC(COC2(C(=O)O)CC(OC3(C(=O)O)CC(OC4OC(C(=O)O)C(OC5OC(CO)C(O)C(O)C5O)C(O)C4O)C(O)C(C(O)CO)O3)C(OC3OC(CO)C(O)C(O)C3O)C(C(O)CO)O2)C(OP(=O)(O)O)C1OC(=O)CC(O)CCCCCCC (centres unmarked) [Formula (A2)]	Equivalent results were obtained	Equivalent results were obtained
